Values quoted from earlier work, collected in patent US8871812B2, “Therapeutic regimen comprising PEG-interferon, ribavirin and VX-950 for the treatment of hepatitis” (priority 2008, dated 2014).

System: HCV
Details: monotherapy; cited from earlier work

## interferon alfa
  cases with long term remission: ~25%
